Data taken from EP3415523A1, “COMBINATION MEDICAMENT COMPRISING A PRODRUG AND INHALABLE CATALYST” (priority 2017, dated 2018).

Legend:
A549 cells [1] = test: EC50 experiments, dose response of cell viability (PrestoBlue); format: cell-based; conditions: 3 days of treatment, prodrug versus its deprotected counterpart (gemcitabine)
Experimental: A549 cells were seeded in 96-well plates at a cell concentration of 2,000 cells/well and incubated overnight before treatment. Each well was then replaced with 100 µL of fresh F-12K medium containing protected gemcitabine (concentration ranging from 10^4 µM to 10^-4 µM) and DMSO (2% v/v), control wells were replaced with 100 µL of fresh F-12K medium and DMSO (2% v/v). Control and treated plates were incubated for 72 h before PrestoBlue cell viability reagent (10% v/v) was added to each well and the plate incubated for 2 h. Fluorescence emission was measured using a microplate reader (Tecan; ex: 540 nm; em: 590 nm).
Dose-response experiments were performed in order to determine the half maximal effective concentration (EC50) of both the drug as well as the prodrug.

A549 cells [2] = test: Extracellular prodrug activation, viability assay (PrestoBlue); format: cell-based; conditions: 0.05 µM; for viability: 3 days
Experimental: A549 cells were seeded in 96-well plates at a cell concentration of 4,000 cells/well and incubated overnight before treatment. Each well was then replaced with 100 µL of fresh F-12K medium containing protected gemcitabine (0.05 µM) and DMSO (2% v/v), control wells were replaced with 100 µL of fresh F-12K medium and DMSO (2% v/v). Plates were incubated for 1 h before 10 µL of a platinum nanoparticles solution (50 ppm, 3 nm diameter) was added to each well and 10 µL of water was added to control wells. Plates were incubated for 1 h before placing them in a custom-designed gas chamber. Control plates were left untouched in the incubator. The chamber was placed in the incubator, connected to a gas bottle outside the incubator and to an outlet. The gas chamber was flushed for 1 min with hydrogen gas at 1 bar and closed. Plates were incubated 2 h in the gas chamber before placing them back in the incubator with the control plates. Control and treated plates were incubated for 72 h before PrestoBlue cell viability reagent (10% v/v) was added to each well and the plate incubated for 2 h. Fluorescence emission was measured using a microplate reader (Tecan; ex: 540 nm; em: 590 nm).
This could be due to a constitutively occurring slow reduction of the nitro group by the cells. […] Although this would require further investigations, it could be a consequence of the increased lipophilicity of the protected drug thereby conferring an increased uptake of the drug with respect to its deprotected counterpart.

mammalian cells = conditions: in vitro test on mammalian cells; cited from earlier work

O=C(Nc1ccn([C@@H]2O[C@H](CO)[C@@H](O)C2(F)F)c(=O)n1)OCc1ccc([N+](=O)[O-])cc1 [gemcitabine prodrug, p-Nitrobenzyloxycarbonyl Gemcitabine]
difference of EC50 values of drug and prodrug (A549 cells [1]): about 5 orders of magnitude
viability (A549 cells [2]; both hydrogen and platinum present, compared with positive control gemcitabine): slightly lower viability than the positive control with gemcitabine
viability (A549 cells [2]; the 3 conditions where either hydrogen and/or platinum is missing): A small decrease
activity of the drug (A549 cells [2]; Fig. 7 and Fig. 8, 3 days, 5 ppm or 10 ppm platinum nanoparticles, four conditions with/without hydrogen and catalyst): only recovered if both the hydrogen and the platinum nanoparticles are present

Cc1ccc(N)cc1 [p-toluidine]
mutagenic / genotoxic (mammalian cells): neither mutagenic nor genotoxic
